The compounds below were run against FASN enzyme (Homo sapiens, UniProt P49327) (assay: Enzymatic Assay for FASN Inhibitors). Conditions: not given.
Format: biochemical
Method in brief: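 40 nM FASN preincubated with compound 60 min at 25° C in HEPES pH 7.3 buffer with 0.04% Triton X-100. Then 20 μM acetyl-CoA, 60 μM malonyl-CoA and 100 μM NADPH added for 90 min, quenched with CPM thiol probe; fluorescence 360/530 nm, IC50 by four-parameter fit.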

Chain of FASN enzyme (P49327 whole entry): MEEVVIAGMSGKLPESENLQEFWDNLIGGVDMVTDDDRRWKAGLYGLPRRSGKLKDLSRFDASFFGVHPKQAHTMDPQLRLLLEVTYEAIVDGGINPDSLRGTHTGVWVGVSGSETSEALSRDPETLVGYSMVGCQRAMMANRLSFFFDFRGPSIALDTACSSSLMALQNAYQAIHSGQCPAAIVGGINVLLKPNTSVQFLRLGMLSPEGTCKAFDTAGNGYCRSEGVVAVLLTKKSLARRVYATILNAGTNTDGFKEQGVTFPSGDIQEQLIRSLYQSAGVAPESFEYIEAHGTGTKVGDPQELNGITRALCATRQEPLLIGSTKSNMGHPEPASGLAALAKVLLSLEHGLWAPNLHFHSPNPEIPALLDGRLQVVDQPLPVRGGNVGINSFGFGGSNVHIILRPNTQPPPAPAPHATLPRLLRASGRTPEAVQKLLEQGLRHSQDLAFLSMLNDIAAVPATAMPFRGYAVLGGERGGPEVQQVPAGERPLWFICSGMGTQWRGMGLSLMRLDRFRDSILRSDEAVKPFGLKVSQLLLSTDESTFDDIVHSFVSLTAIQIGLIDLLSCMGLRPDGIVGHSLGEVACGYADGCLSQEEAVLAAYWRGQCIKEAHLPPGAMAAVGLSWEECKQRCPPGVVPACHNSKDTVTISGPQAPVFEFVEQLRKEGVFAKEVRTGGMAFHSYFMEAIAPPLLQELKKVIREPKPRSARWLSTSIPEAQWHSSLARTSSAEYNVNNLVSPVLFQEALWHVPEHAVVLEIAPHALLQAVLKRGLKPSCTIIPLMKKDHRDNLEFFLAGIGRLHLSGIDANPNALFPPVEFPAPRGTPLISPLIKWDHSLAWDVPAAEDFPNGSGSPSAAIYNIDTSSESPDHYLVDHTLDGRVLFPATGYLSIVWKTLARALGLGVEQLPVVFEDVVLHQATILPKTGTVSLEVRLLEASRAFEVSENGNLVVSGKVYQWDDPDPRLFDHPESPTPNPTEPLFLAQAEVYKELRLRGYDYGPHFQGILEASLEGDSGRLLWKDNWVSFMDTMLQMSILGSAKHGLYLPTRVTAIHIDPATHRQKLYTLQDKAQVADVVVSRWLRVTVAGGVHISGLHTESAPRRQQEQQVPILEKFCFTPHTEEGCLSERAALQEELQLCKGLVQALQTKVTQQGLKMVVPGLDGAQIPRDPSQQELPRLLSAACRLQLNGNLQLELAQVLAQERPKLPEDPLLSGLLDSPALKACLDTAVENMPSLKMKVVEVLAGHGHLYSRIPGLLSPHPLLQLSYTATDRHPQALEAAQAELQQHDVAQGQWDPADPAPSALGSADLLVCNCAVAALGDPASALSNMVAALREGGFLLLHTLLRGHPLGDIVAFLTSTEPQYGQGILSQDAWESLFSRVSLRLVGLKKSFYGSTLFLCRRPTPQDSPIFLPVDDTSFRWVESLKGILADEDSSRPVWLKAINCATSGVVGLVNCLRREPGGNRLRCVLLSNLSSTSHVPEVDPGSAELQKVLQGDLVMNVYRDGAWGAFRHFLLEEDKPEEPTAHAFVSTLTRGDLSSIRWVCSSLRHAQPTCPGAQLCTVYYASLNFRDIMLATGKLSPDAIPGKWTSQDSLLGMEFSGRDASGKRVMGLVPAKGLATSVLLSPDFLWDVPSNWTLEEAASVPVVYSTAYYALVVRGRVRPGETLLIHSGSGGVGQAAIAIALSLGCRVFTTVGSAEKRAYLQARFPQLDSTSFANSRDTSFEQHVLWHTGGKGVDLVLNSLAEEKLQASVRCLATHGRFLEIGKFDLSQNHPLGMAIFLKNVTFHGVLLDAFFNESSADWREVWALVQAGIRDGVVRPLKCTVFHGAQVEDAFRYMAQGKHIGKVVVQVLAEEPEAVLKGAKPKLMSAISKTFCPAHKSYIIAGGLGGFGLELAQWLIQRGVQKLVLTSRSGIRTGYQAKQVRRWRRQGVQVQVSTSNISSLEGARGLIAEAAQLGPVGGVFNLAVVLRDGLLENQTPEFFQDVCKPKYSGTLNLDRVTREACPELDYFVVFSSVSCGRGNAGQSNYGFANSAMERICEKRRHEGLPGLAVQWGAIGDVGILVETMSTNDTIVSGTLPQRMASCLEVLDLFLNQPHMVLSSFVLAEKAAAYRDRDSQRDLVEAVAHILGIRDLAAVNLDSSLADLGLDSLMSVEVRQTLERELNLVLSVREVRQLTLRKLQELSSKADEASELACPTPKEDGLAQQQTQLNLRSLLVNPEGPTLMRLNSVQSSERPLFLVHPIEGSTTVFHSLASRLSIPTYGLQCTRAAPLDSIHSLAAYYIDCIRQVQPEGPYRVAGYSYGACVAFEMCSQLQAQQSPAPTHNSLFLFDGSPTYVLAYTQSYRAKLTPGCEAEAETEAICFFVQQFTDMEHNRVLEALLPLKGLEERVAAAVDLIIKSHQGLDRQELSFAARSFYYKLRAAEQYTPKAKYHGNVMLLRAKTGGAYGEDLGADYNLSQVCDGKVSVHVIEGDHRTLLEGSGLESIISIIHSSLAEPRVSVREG

Structure (SMILES) | IC50 [nM]
O=C(c1ccc(N2CCc3cc(F)ccc32)cc1)N1CCN(C(=O)C2(O)CC2)CC1 [1-{4-[4-(5-fluoro-2,3-dihydro-1H-indol-1-yl)benzoyl]piperazine-1-carbonyl}cyclopropan-1-ol] | < 500
O=C(c1ccc(N2Cc3ccc(F)cc3C2)cc1)N1CCN(C(=O)C2(O)CC2)CC1 [1-{4-[4-(5-fluoro-2,3-dihydro-1H-isoindol-2-yl)benzoyl]piperazine-1-carbonyl}cyclopropan-1-ol] | < 500
O=C(c1ccc(-c2nc3ccc(Cl)cc3o2)c(F)c1)N1CCN(C(=O)C2(O)CC2)CC1 [1-{4-[4-(6-chloro-1,3-benzoxazol-2-yl)-3-fluorobenzoyl]piperazine-1-carbonyl}cyclopropan-1-ol] | < 500
O=C(c1ccc(-c2nc3ccc(F)cc3o2)cc1)N1CCN(C(=O)C2(O)CC2)CC12CC2 [1-{4-[4-(6-fluoro-1,3-benzoxazol-2-yl)benzoyl]-4,7-diazaspiro[2.5]octane-7-carbonyl}cyclopropan-1-ol] | < 500
O=C(c1ccc(-c2n[nH]c3c(F)cccc23)cc1)N1CCN(C(=O)C2(O)CC2)CC1 [1-{4-[4-(7-fluoro-1H-indazol-3-yl)benzoyl]piperazine-1-carbonyl}cyclopropan-1-ol] | < 500
COc1ccc2c(c1)CN(c1ccc(C(=O)N3CCN(C(=O)C4(O)CC4)CC3)cc1)CC2 [1-{4-[4-(7-methoxy-1,2,3,4-tetrahydroisoquinolin-2-yl)benzoyl]piperazine-1-carbonyl}cyclopropan-1-ol] | < 500
N#CCc1cccc(-c2ccc(C(=O)N3CCN(C(=O)C4(O)CC4)CC3)cc2)c1 [2-(3-{4-[4-(1-hydroxycyclopropanecarbonyl)piperazine-1-carbonyl]phenyl}phenyl)acetonitrile] | < 500
N#Cc1ccc2oc(-c3ccc(C(=O)N4CCN(C(=O)C5(O)CC5)CC4)cc3)nc2c1 [2-[4-({4-[(1-hydroxycyclopropyl)carbonyl]piperazin-1-yl}carbonyl)phenyl]-1,3-benzoxazole-5-carbonitrile] | < 500
N#Cc1ccc2c(c1)CN(c1ccc(C(=O)N3CCN(C(=O)C4(O)CC4)CC3)cc1)CC2 [2-{4-[4-(1-hydroxycyclopropanecarbonyl)piperazine-1-carbonyl]phenyl}-1,2,3,4-tetrahydroisoquinoline-7-carbonitrile] | < 500
O=C(c1ccc(-c2cccc(NS(=O)(=O)CCC(F)(F)F)c2)cc1)N1CCN(C(=O)C2(O)CC2)CC1 [3,3,3-trifluoro-N-(3-{4-[4-(1-hydroxycyclopropanecarbonyl)piperazine-1-carbonyl]phenyl}phenyl)propane-1-sulfonamide] | < 500
O=C(Nc1cccc(-c2ccc(C(=O)N3CCN(C(=O)C4(O)CC4)CC3)cc2)c1)C1CC(F)(F)C1 [3,3-difluoro-N-(3-{4-[4-(1-hydroxycyclopropanecarbonyl)piperazine-1-carbonyl]phenyl}phenyl)cyclobutane-1-carboxamide] | < 500

Other lines, results leading:

IC50 [nM] | Structure (SMILES)
< 500 | NC1(C(=O)N2CCN(C(=O)c3ccc(-c4cc(Cl)ccc4F)cc3)CC2)CC1 [1-{4-[4-(5-chloro-2-fluorophenyl)benzoyl]piperazine-1-carbonyl}cyclopropan-1-amine]
< 500 | Cn1nnc2cc(-c3ccc(C(=O)N4CCN(C(=O)C5(O)CC5)CC4)cc3)c(F)cc21 [1-{4-[4-(6-fluoro-1-methyl-1H-1,2,3-benzotriazol-5-yl)benzoyl]piperazine-1-carbonyl}cyclopropan-1-ol]
< 500 | O=C(c1ccc(-c2ncc3cc(F)ccc3n2)cc1)N1CCN(C(=O)C2(O)CC2)CC1 [1-{4-[4-(6-fluoroquinazolin-2-yl)benzoyl]piperazine-1-carbonyl}cyclopropan-1-ol]
< 500 | COc1ccc2nc(-c3ccc(C(=O)N4CCN(C(=O)C5(O)CC5)CC4)cc3)oc2c1 [1-{4-[4-(6-methoxy-1,3-benzoxazol-2-yl)benzoyl]piperazine-1-carbonyl}cyclopropan-1-ol]
< 500 | O=C(c1ccc(N2CCc3cccc(F)c32)cc1)N1CCN(C(=O)C2(O)CC2)CC1 [1-{4-[4-(7-fluoro-2,3-dihydro-1H-indol-1-yl)benzoyl]piperazine-1-carbonyl}cyclopropan-1-ol]
< 500 | CNC(=O)COc1cccc(-c2ccc(C(=O)N3CCN(C(=O)C4(O)CC4)CC3)cc2)c1 [2-(3-{4-[4-(1-hydroxycyclopropanecarbonyl)piperazine-1-carbonyl]phenyl}phenoxy)-N-methylacetamide]
< 500 | O=C(c1ccc(-c2cccc(N3CCCS3(=O)=O)c2)cc1)N1CCN(C(=O)C2(O)CC2)CC1 [2-(3-{4-[4-(1-hydroxycyclopropanecarbonyl)piperazine-1-carbonyl]phenyl}phenyl)-1λ^6,2-thiazolidine-1,1-dione]
< 500 | CC(C)(C#N)c1cccc(-c2ccc(C(=O)N3CCN(C(=O)C4(O)CC4)CC3)cc2)c1 [2-(3-{4-[4-(1-hydroxycyclopropanecarbonyl)piperazine-1-carbonyl]phenyl}phenyl)-2-methylpropanenitrile]

Same assay, conditions: FASN enzymatic assay; Table 2-2

Structure (SMILES) | IC50 [nM]
CC(C)n1ncc2cc(-c3ccc(C(=O)N4CCN(C(=O)C5(O)CC5)CC4)cc3)ccc21 [1-{[4-({4-[1-(propan-2-yl)-1H-indazol-5-yl]phenyl}carbonyl)piperazin-1-yl]carbonyl}cyclopropan-1-ol] | 500 to 5000
O=C(c1ccc(-c2ccc3nc(C(F)(F)F)cn3c2)cc1)N1CCN(C(=O)C2(O)CC2)CC1 [1-{[4-({4-[2-(trifluoromethyl)imidazo[1,2-a]pyridin-6-yl]phenyl}carbonyl)piperazin-1-yl]carbonyl}cyclopropan-1-ol] | 500 to 5000
O=C(c1ccc(-c2ccc(F)cc2C(F)(F)F)cc1)N1CCN(C(=O)C2(O)CC2)CC1 [1-{[4-({4-[4-fluoro-2-(trifluoromethyl)phenyl]phenyl}carbonyl)piperazin-1-yl]carbonyl}cyclopropan-1-ol] | 500 to 5000

Results, then the compound that gave them:

IC50 [nM] | Structure (SMILES)
500 to 5000 | O=C(c1ccc(-c2cc(C(F)(F)F)ccc2Cl)cc1)N1CCN(C(=O)C2(O)CC2)CC1 [1-{[4-({4-[2-chloro-5-(trifluoromethyl)phenyl]phenyl}carbonyl)piperazin-1-yl]carbonyl}cyclopropan-1-ol]
500 to 5000 | O=C(c1ccc(-c2cccc(OC(F)(F)F)c2F)cc1)N1CCN(C(=O)C2(O)CC2)CC1 [1-{[4-({4-[2-fluoro-3-(trifluoromethoxy)phenyl]phenyl}carbonyl)piperazin-1-yl]carbonyl}cyclopropan-1-ol]
500 to 5000 | O=C(c1ccc(-c2cccc(C(F)(F)F)c2F)cc1)N1CCN(C(=O)C2(O)CC2)CC1 [1-{[4-({4-[2-fluoro-3-(trifluoromethyl)phenyl]phenyl}carbonyl)piperazin-1-yl]carbonyl}cyclopropan-1-ol]
500 to 5000 | O=C(c1ccc(-c2cc(F)cc(C(F)(F)F)c2)cc1)N1CCN(C(=O)C2(O)CC2)CC1 [1-{[4-({4-[3-fluoro-5-(trifluoromethyl)phenyl]phenyl}carbonyl)piperazin-1-yl]carbonyl}cyclopropan-1-ol]
500 to 5000 | O=C(c1ccc(-c2ccc(Cl)cc2C(F)(F)F)cc1)N1CCN(C(=O)C2(O)CC2)CC1 [1-{[4-({4-[4-chloro-2-(trifluoromethyl)phenyl]phenyl}carbonyl)piperazin-1-yl]carbonyl}cyclopropan-1-ol]
500 to 5000 | O=C(c1ccc(-c2ccnc3cc(C(F)(F)F)ccc23)cc1)N1CCN(C(=O)C2(O)CC2)CC1 [1-{[4-({4-[7-(trifluoromethyl)quinolin-4-yl]phenyl}carbonyl)piperazin-1-yl]carbonyl}cyclopropan-1-ol]
500 to 5000 | O=C(c1ccc(-c2ccc(Cl)cc2F)cc1)N1CCN(C(=O)C2(O)CC2)C[C@H]1CO [1-{[(3S)-4-{[4-(4-chloro-2-fluorophenyl)phenyl]carbonyl}-3-(hydroxymethyl)piperazin-1-yl]carbonyl}cyclopropan-1-ol]

Same assay, conditions: FASN enzymatic assay; Table 2-3

Structure (SMILES) | IC50 [nM]
CC(C)Oc1cccc(-c2ccc(C(=O)N3CCN(C(=O)C4(O)CC4)CC3)cc2)c1F [1-{[4-({4-[2-fluoro-3-(propan-2-yloxy)phenyl]phenyl}carbonyl)piperazin-1-yl]carbonyl}cyclopropan-1-ol] | ≥ 5000
CC(C)Oc1ccc(Cl)cc1-c1ccc(C(=O)N2CCN(C(=O)C3(O)CC3)CC2)cc1 [1-{[4-({4-[5-chloro-2-(propan-2-yloxy)phenyl]phenyl}carbonyl)piperazin-1-yl]carbonyl}cyclopropan-1-ol] | ≥ 5000
O=C(c1cn2cc(-c3ccccc3)ccc2n1)N1CCN(C(=O)C2(O)CC2)CC1 [1-{[4-({6-phenylimidazo[1,2-a]pyridin-2-yl}carbonyl)piperazin-1-yl]carbonyl}cyclopropan-1-ol] | ≥ 5000
COC(C)(C)C(=O)N1CCN(C(=O)c2ccc(-c3ccccc3)cc2)CC1 [2-methoxy-2-methyl-1-{4-[(4-phenylphenyl)carbonyl]piperazin-1-yl}propan-1-one] | ≥ 5000
CC(O)(C(=O)N1CCN(C(=O)c2ccc(-c3ccccc3)cc2)CC1)C(F)(F)F (centres unmarked) [3,3,3-trifluoro-2-hydroxy-2-methyl-1-{4-[(4-phenylphenyl)carbonyl]piperazin-1-yl}propan-1-one] | ≥ 5000

Results, then the compound that gave them:

IC50 [nM] | Structure (SMILES)
≥ 5000 | O=C(c1ccc(-c2cc(CO)ccc2Cl)cc1)N1CCN(C(=O)C2(O)CC2)CC1 [1-{[4-({4-[2-chloro-5-(hydroxymethyl)phenyl]phenyl}carbonyl)piperazin-1-yl]carbonyl}cyclopropan-1-ol]
≥ 5000 | O=C(c1ccc(-c2ccc(C(F)(F)F)nc2)cc1)N1CCN(C(=O)C2(O)CC2)CC1 [1-{[4-({4-[6-(trifluoromethyl)pyridin-3-yl]phenyl}carbonyl)piperazin-1-yl]carbonyl}cyclopropan-1-ol]
≥ 5000 | O=C(CO)N1CCN(C(=O)c2ccc(-c3ccccc3)cc2)CC1 [2-hydroxy-1-{4-[(4-phenylphenyl)carbonyl]piperazin-1-yl}ethan-1-one]
≥ 5000 | CC(C)(O)C(=O)N1CCN(C(=O)c2ccc(-c3ccccc3)cc2)CC1 [2-hydroxy-2-methyl-1-{4-[(4-phenylphenyl)carbonyl]piperazin-1-yl}propan-1-one]

Reference: patent US10457655B2, “Compounds and compositions for inhibition of FASN” (FORMA Therapeutics, Inc., priority 2013, dated 2019)
